Several values for one entry are separate records, joined by “and”; a condition that tells them apart may be missing. Equal entries are not always repeated. Where two headings read alike, the source gives them in different places.
Key:
[1] = in vitro; details: human, Caco-2
[2] = system: SARS-CoV-2; details: at 1 microM; FIGS. 1A-E (monocytes, epithelial cells, extracellular, total virus)
[3] = system: Omicron; test: Anti-Omicron activity in Calu-3; assay type: cell-based, SARS-CoV-2; details: Severe acute respiratory syndrome coronavirus 2
[4] = in vitro; details: human
[5] = Cytotoxicity in PBM cells; assay type: cell-based, human; details: human
Procedure: (§1) The toxicity of the compounds was assessed in Vero, human PBM, CEM (human lymphoblastoid), MT-2, and HepG2 cells, as described previously (see Schinazi R. F., Sommadossi J.-P., Saalmann V., Cannon D. L., Xie M.-Y., Hart G. C., Smith G. A. & Hahn E. F. Antimicrob. Agents Chemother. 1990, 34, 1061-67). Cycloheximide was included as positive cytotoxic control, and untreated cells exposed to solvent were included as negative controls. The cytotoxicity IC50 was obtained from the concentration-response curve using the median effective method described previously (see Chou T.-C. & Talalay P. Adv. Enzyme Regul. 1984, 22, 27-55; Belen'kii M. S. & Schinazi R. F. Antiviral Res. 1994, 25, 1-11).

[6] = Cytotoxicity in CEM cells; assay type: cell-based, human; details: human, CEM lymphoblastoid cells
Procedure: as §1

[7] = system: SARS-CoV-2; test: Anti-SARS-CoV-2 activity in Caco2 cells (virus yield inhibition)
[8] = Non-compartmental PK analysis of IV and oral Compound A in mice; assay type: in vivo; details: for half-life: read-out: mean terminal t1/2 (converted)
Procedure: A study was performed to measure the concentration of Compound A ([…]) over time (hours) when administered orally at a concentration of 30 mg/kg (FIG. 8A) and intravenously at a concentration of 15 mg/kg (FIG. 8B).

[9] = system: SARS-CoV-2; test: Anti-SARS-CoV-2 activity in Calu3 cells (virus yield inhibition); assay type: cell-based; details: Severe acute respiratory syndrome coronavirus 2, Calu-3, Table 1
[10] = system: Omicron; test: microbe, parasite or virus in culture
[11] = Multi-dose range-finding study in Golden Syrian hamsters; details: hamster, in vivo, po, 30 mg/kg
Procedure: Multi-dose range-finding study in Golden Syrian Hamsters: 3 male Syrian hamsters were given 30 mg/kg of compound A by oral gavage daily for 7 days. The body weight of each of the individual hamsters during the nucleoside analog treatment was measured (grams per day) over a 7 day period. […] The body temperature of the hamsters was also measured over the course of the treatment in two of the hamsters (FIG. 9, Rodent 1 and Rodent 2). The third hamster lost the chip, and, despite re-chipping, temperatures were still not recording.
Daily observations of the hamsters were taken, particularly with respect to their ability to eat and drink normally, and other behavior and activity ratings (B.A.R.), and the observations are summarized below in Table 10.

[12] = system: SARS-CoV-2; test: Anti-SARS-CoV-2 activity in HAE-HBO (apical-out lung organoids); assay type: cell-based; details: Severe acute respiratory syndrome coronavirus 2
[13] = Cytotoxicity in Vero cells; details: African green monkey, Vero kidney cells
[14] = system: SARS-CoV-2; test: Anti-SARS-CoV-2 activity in Calu3 ALI culture; assay type: cell-based; details: Severe acute respiratory syndrome coronavirus 2, Calu-3; Calu3 air-liquid interface
[15] = Quantification of Compound A in mouse lung, brain and plasma; assay type: in vivo, CD-1 mice; details: for concentration at 7 h / Brain concentration / Lung concentration: 7 h; for Plasma concentration, average / Plasma concentration: assuming density 1 g/mL
Procedure: CD-1 mice were treated with Compound A PO (30 mg/kg, 3 mice) or IV (15 mg/kg, 3 mice). Lung and brain samples were collected at 7 h.
Lung and brain samples were homogenized with 5× volume of 20% MeOH.
50 μL tissue homogenate was mixed with 250 μL MeOH (containing 40 nM indinavir as IS).
The supernatant was air-dried, then reconstituted in 150 μL of H2O.
Subjected to LC-MS analysis.
Calibration curve range: 30 nM to 30 μM.
Instrument: TSQ Quantiva, Column: Kinetex XB—C8 (50×2.1 mm, 2.6 μm)
LC buffers: A): 0.1% formic acid, and B): Acetonitrile
MRM methods: Compound A (269.2→112 positive), Indinavir (IS, 614.4→421.2 positive, IS)

[16] = system: SARS-CoV-2; test: Anti-SARS-CoV-2 activity in Vero cells (virus yield inhibition); assay type: cell-based
[17] = Cytotoxicity in Huh7 cells; assay type: cell-based; details: human
[18] = IV 15 mg/kg, individual mice, 15 mg/kg
[19] = PO 30 mg/kg, individual mice, 30 mg/kg

SMILES: N#C[C@@]1(n2ccc(N)nc2=O)O[C@H](CO)[C@@H](O)[C@H]1O [Compound A, (2R,3R,4S,5R)-2-(4-amino-2-oxopyrimidin-1(2H)-yl)-3,4-dihydroxy-5-(hydroxymethyl)-tetrahydrofuran-2-carbonitrile]
- CC50 [1]: > 100000 nM
- reduction of viral loads [2]: 2-3 log
- EC50 [3]: 1800 to 2100 nM
- EC90 [3]: 4500 to 6200 nM
- CC50 [4]: > 100000 nM
- CC50 [5]: 92000 nM
- CC50 [6]: 99000 nM
- EC50 ([7]; Severe acute respiratory syndrome coronavirus 2, Caco-2, read-out: Anti-SARS-CoV-2 Activity (Caco2) EC50): 300 nM
- EC90 ([7]; Severe acute respiratory syndrome coronavirus 2, Caco-2, read-out: Anti-SARS-CoV-2 Activity (Caco2) EC90): 1200 nM
- oral bioavailability [8]: excellent oral bioavailability
- plasma concentration at start of decline ([8]; IV 15 mg/kg, FIG. 8B): around 10 μg/ml
- Mean input time (MIT) into plasma of oral dose ([8]; MRTPO−MRTIV): 1.05 h
- Ka ([8]; approximation assuming 1-compartment PK, ~1/MIT): ~0.95 h⁻¹
- half-life ([8]; mouse, plasma, 15 mg/kg, IV dose): 2.23 h
- half-life ([8]; mouse, plasma, 30 mg/kg, oral dose): 2.47 h
- concentration at 7 h ([8]; mouse, plasma, IV 15 mg/kg, over the course of 7 hours, FIG. 8B, read-out: plasma concentration after 7 hours): ~100 ng/mL
- bioavailability ([8]; mouse, plasma, oral 30 mg/kg vs IV 15 mg/kg, excluding PO_m3): 99.5%
- AUC ([8]; mouse, plasma, oral 30 mg/kg, excluding PO_m3 (possible outlier), read-out: mean oral AUCPO): 28300 ng·h/mL
- mean oral CL ([8]; oral 30 mg/kg, excluding PO_m3): 1.06 L/hr per kg
- MRTPO ([8]; oral dose): 2.65 h
- EC50 [9]: 20 nM
- EC90 [9]: 200 nM
- EC50 ([10]; Severe acute respiratory syndrome coronavirus 2, Caco-2, read-out: Anti-Omicron Activity (Caco-2) EC50): 1200 nM
- EC90 ([10]; Severe acute respiratory syndrome coronavirus 2, Caco-2, read-out: Anti-Omicron Activity (Caco-2) EC90): 2200 nM
- Daily Observations [11]: B.A.R. Eating
- ability to eat and drink [11]: able to eat and drink normally
- EC50 [12]: 300 nM
- EC90 [12]: 500 nM
- CC50 [13]: > 100000 nM
- EC50 [14]: 1300 nM
- EC90 [14]: 7400 nM
- concentration at 7 h ([15]; CD-1, mouse, brain, iv, 15 mg/kg, IV 15 mg/kg, average of 3 mice, assuming tissue density 1 g/mL, read-out: Brain concentration, average): 270 nM
- concentration at 7 h ([15]; CD-1, mouse, brain, iv, 15 mg/kg, IV 15 mg/kg, average of 3 mice, read-out: Brain concentration, average): 71.3 ng/g
- concentration at 7 h ([15]; CD-1, mouse, brain, po, 30 mg/kg, PO 30 mg/kg, average of 3 mice, assuming tissue density 1 g/mL, read-out: Brain concentration, average): 200 nM
- concentration at 7 h ([15]; CD-1, mouse, brain, po, 30 mg/kg, PO 30 mg/kg, average of 3 mice, read-out: Brain concentration, average): 53.1 ng/g
- concentration at 7 h ([15]; CD-1, mouse, brain, po, 30 mg/kg, PO 30 mg/kg, individual mice, assuming tissue density 1 g/mL, read-out: Brain concentration): 280 nM
- concentration at 7 h ([15]; CD-1, mouse, brain, po, 30 mg/kg, PO 30 mg/kg, individual mice, read-out: Brain concentration): 73.9 ng/g
- concentration at 7 h ([15]; CD-1, mouse, lung, iv, 15 mg/kg, IV 15 mg/kg, average of 3 mice, assuming tissue density 1 g/mL, read-out: Lung concentration, average): 1200 nM
- concentration at 7 h ([15]; CD-1, mouse, lung, iv, 15 mg/kg, IV 15 mg/kg, average of 3 mice, read-out: Lung concentration, average): 321 ng/g
- concentration at 7 h ([15]; CD-1, mouse, lung, iv, 15 mg/kg, IV 15 mg/kg, individual mice, assuming tissue density 1 g/mL, read-out: Lung concentration): 830 nM
- concentration at 7 h ([15]; CD-1, mouse, lung, iv, 15 mg/kg, IV 15 mg/kg, individual mice, read-out: Lung concentration): 223 ng/g
- concentration at 7 h ([15]; CD-1, mouse, lung, po, 30 mg/kg, PO 30 mg/kg, average of 3 mice, assuming tissue density 1 g/mL, read-out: Lung concentration, average): 4010 nM
- concentration at 7 h ([15]; CD-1, mouse, lung, po, 30 mg/kg, PO 30 mg/kg, average of 3 mice, read-out: Lung concentration, average): 1080 ng/g
- Brain concentration [15, 18]: 39.3 ng/g and 56.9 ng/g and 117.8 ng/g
- Lung concentration [15, 18]: 412.0 ng/g and 327.1 ng/g
- concentration at 7 h ([15]; IV 15 mg/kg, individual mice, assuming tissue density 1 g/mL, 15 mg/kg, read-out: Brain concentration): 150 nM and 210 nM and 440 nM
- concentration at 7 h ([15]; IV 15 mg/kg, individual mice, assuming tissue density 1 g/mL, 15 mg/kg, read-out: Lung concentration): 1540 nM and 1220 nM
- Plasma concentration, average ([15]; IV 15 mg/kg, average of 3 mice): 520 nM
- Plasma concentration [15, 18]: 370 nM and 610 nM and 590 nM
- Brain concentration [15, 19]: 40.8 ng/g and 44.7 ng/g
- Lung concentration [15, 19]: 881.8 ng/g and 730.8 ng/g and 1,615 ng/g
- concentration at 7 h ([15]; PO 30 mg/kg, individual mice, assuming tissue density 1 g/mL, 30 mg/kg, read-out: Brain concentration): 150 nM and 170 nM
- concentration at 7 h ([15]; PO 30 mg/kg, individual mice, assuming tissue density 1 g/mL, 30 mg/kg, read-out: Lung concentration): 3290 nM and 2720 nM and 6020 nM
- Plasma concentration, average ([15]; PO 30 mg/kg, average of 3 mice): 3130 nM
- Plasma concentration [15, 19]: 2090 nM and 2320 nM and 4990 nM
- EC50 ([16]; Severe acute respiratory syndrome coronavirus 2, Table 1, read-out: Anti-SARS-CoV-2 Activity (Vero) EC50): 600 nM
- EC90 ([16]; Severe acute respiratory syndrome coronavirus 2, Table 1, read-out: Anti-SARS-CoV-2 Activity (Vero) EC90): 2300 nM
- CC50 [17]: > 100000 nM

Reference: US20250114389A1, “NUCLEOSIDES AND NUCLEOTIDES ANALOGS AS ANTIVIRAL AGENTS” (Emory University, priority 2021, published 2025)
